Experimental data published in US12221432B2, “Estrogen receptor antagonist” (CHIA TAI TIANQING PHARMACEUTICAL GROUP CO., LTD., priority 2018, dated 2025).
Where a name gives a salt, the structure may show the parent alone.

Key:
MCF-7 cells = assay: MCF-7 cell proliferation inhibition; format: cell-based; details: 6 days incubation, CellTiter-Glo; read-out: IC50 for MCF-7 cell proliferation inhibition
Experimental: EMEM medium was purchased from Wisent, and fetal bovine serum was purchased from Biosera. Promega CellTiter-Glo reagent. MCF-7 cells were purchased from the Cell Bank of Type Culture Collection Committee of the Chinese Academy of Sciences. Nivo5 multi-marker analyzer (PerkinElmer).
MCF-7 cells were seeded in a white 384-well plate at 600 cells/[…] suspension/well. The plate was incubated in a CO2 incubator overnight.
On the day of treatment, a day 0 plate coated under the same conditions the day before was taken, centrifuged to remove the medium, added with 25 microliters of Promega CellTiter-Glo reagent to each well, and incubated at room temperature for 10 minutes to stabilize the luminescence signal. Measures were read by PerkinElmer Nivo multi-marker analyzer as an initial value for 0% inhibition.
The test compounds were serially 5-fold diluted to the 10th concentration with a multichannel pipette, i.e., from 2 millimoles to […], and the experiments were set up in duplicate. 47.5 microliters of medium was added to the intermediate plate, 2.5 microliters of serially diluted compounds were transferred to corresponding wells of the intermediate plate, and after mixing, 5 microliters of the mixture per well was transferred to the cell plate. The plate was incubated in a CO2 incubator for 6 days.
After 6 days of co-incubation with the compounds, the plate was centrifuged to remove the medium, added with 25 microliters of Promega CellTiter-Glo reagent to each well, and incubated at room temperature for 10 minutes to stabilize the luminescence signal. Measures were read by PerkinElmer Nivo multi-marker analyzer.
The original data was converted into inhibition rate by the formula: % inhibition=((RFUCmpd−AVER(RFUNeg.Ctrl))/((AVER(RFUDay0)−AVER(RFUNeg.Ctrl))×100%. Curve fitting was conducted and IC50 was calculated.

uterine growth = assay: Uterine wet weight inhibition in immature rats; format: in vivo, female immature rats; details: oral, three consecutive days
Experimental: This study was intended to evaluate the uterine growth inhibition of compounds of the present application in female immature rats aged 18-21 days (provided by Beijing Vital River Laboratory Animal Technology Co., Ltd., with the number of test animals in each experimental group being 5). In this study, 18-day-old female immature rats were given oral doses of 10 mg/kg of the compound of the present application and 0.1 mg/kg of estradiol for three consecutive days, the control group was given oral doses of 0.1 mg/kg of estradiol for three consecutive days, and the blank group was given no drugs except the corresponding vehicle. Three days after the administration, the rats were sacrificed, and the uteruses of the rats were weighed to observe the effect of the test compound on the uterine growth inhibition in rats. Inhibition rate=100*[(VehicleEE−Cpd)/(VehicleEE−Vehicle)], wherein VehicleEE is uterine wet weight in the control group (oral doses of 0.1 mg/kg estradiol); Cpd is the uterine wet weight of the treatment group; Vehicle is the uterine wet weight of rats in the blank group.

[1] = Pharmacokinetics study in mice (cassette); format: in vivo; details: female, Balb/c, plasma, mouse cassette PK
Description: (§1) Objective: To determine the drug concentration in the plasma of the mice at different times after intravenous and oral administration of the test compounds by LC/MS/MS using female Balb/c mice as the test animals. To investigate the pharmacokinetic performance of the test compounds in mice and to evaluate the pharmacokinetic characteristics.
Test animals: 4 healthy female Balb/c mice were divided into 2 groups according to the principle of similar weight, 2 in the IV group and 2 in the PO group. The animals were purchased from Shanghai Lingchang Biotechnology Co., Ltd.
(§2) IV group: Appropriate amounts of compounds were weighed respectively, prepared into 2 mg/mL solutions, then mixed to give a 0.5 mg/mL solution, which was stirred and ultrasonicated until a clear state. The vehicle was 15% HP-b-CD.
(§3) PO group: An appropriate amount of the IV group solution was taken and diluted to 0.4 mg/mL with 15% HP-b-CD.
(§4) Administration: After fasting overnight, the IV group was administered intravenously, and the dose of the test compound was 1 mg/kg; the PO group was administered intragastrically, and the dose of the test compound was 2 mg/kg.
(§5) Procedures: For IV group, 30 μL of blood was collected from the saphenous vein of the female Balb/c mice at 0.0833, 0.25, 0.5, 1, 2, 4, 8, and 24 hours post-dose, and placed in a commercial anticoagulant tube with EDTA-K2 added in advance. For PO group, 30 μL of blood was collected from the saphenous vein of the female Balb/c mice at 0.25, 0.5, 1, 2, 4, 8, 12 and 24 hours post-dose, and placed in a commercial anticoagulant tube with EDTA-K2 added in advance. The blood samples were centrifuged (3,200 g, 4° C., 10 minutes) to give plasma samples, which was transferred to a pre-cooled centrifuge tube, frozen in dry ice, and stored in an ultra-low temperature freezer at −60° C. or lower until the LC-MS/MS analysis. The animals were given free access to food 4 hours after the administration. LC/MS/MS method was used to determine the content of the test compounds in the plasma of mice after intravenous and oral administration. The linear range of the method is 2.00-2000 nM.

[2] = Pharmacokinetics study in rats (cassette); format: in vivo; details: female, SD, plasma, rat cassette PK
Description: as §1, with “Experimental objective:” for “Objective:”, “rats” for “mice”, “SD rats” for “Balb/c mice”
Test animals: 4 healthy female SD rats were divided into 2 groups according to according to the principle of similar weight, 2 in the IV group and 2 in the PO group. Animal used in this study were purchased from Beijing Vital River Laboratory Animal Technology Co., Ltd.
as §2, §3, §4
as §5, with “200” for “30”, “jugular” for “saphenous”, “SD rats” for “Balb/c mice”

[3] = tested on: MCF-7 breast cancer cell xenograft; assay: In vivo efficacy, MCF-7 breast cancer xenograft; parameters: species or system BALB/c nude mice; details: for Tumor volume 27 days after grouping: Mean ± SEM; for T/C / TGI: day 27
Experimental: This study was intended to evaluate the anti-tumor efficacy of compounds of the present application in MCF-7 breast cancer cell xenograft BALB/c nude mice (provided by Beijing Vital River Laboratory Animal Technology Co., Ltd., with the number of test animals in each experimental group being 7).
Three days before the xenograft, the mice were inoculated with 0.36 mg of 60-day sustained-release estrogen tablets subcutaneously on the left shoulder. In the logarithmic growth phase, the cells were collected and counted. The cell density was adjusted to 10×10^7 cells/mL, added with an equal volume of Matrigel and mixed for inoculation. Each mouse was xenografted subcutaneously with 0.2 mL of MCF-7 tumor cell suspension (10×10^6) on the right shoulder. On the 14th day after tumor cell xenograft, the mice were grouped and administered the drugs once a day, with an average tumor volume of 200 mm^3 and a body weight of 22.0-23.0 g. Tumor volume and body weight were measured twice a week after grouping. The tumor growth rate (T/C) and tumor growth inhibition rate (TGI) were calculated for the last tumor measurement data on the 27th day after grouping, and the anti-tumor efficacy of the compound was evaluated by TGI (%) or relative tumor proliferation rate T/C (%). TGI (%), reflects the tumor growth inhibition rate. TGI (%)=[(1-(average tumor volume at the end of treatment in a treatment group—average tumor volume at the start of treatment in the treatment group))/(average tumor volume at the end of treatment in the solvent control group—average tumor volume at the start of treatment in the solvent control group)]×100%, relative tumor proliferation rate T/C (%)=TRTV/CRTV×100% (TRTV: average RTV in the treatment group; CRTV: average RTV in the negative control group). Relative tumor volume (RTV) was calculated based on the results of tumor measurement. The formula is RTV=Vt/V0, wherein V0 is the tumor volume measured when grouping and administering (i.e., D0), and Vt is the tumor volume at a certain measurement, the data of TRTV and CRTV should be measured on the same day.

[4] = cited from earlier work
breast cancer = details: intramuscular injection, breast cancer patients; cited from earlier work
[5] = iv, i.v. 1 mg/kg, read-out: Vdss

Structure (SMILES): CC/C(=C(/c1ccc(OCCNC/C=C/C(=O)N(C)C)nc1)c1[nH]c2ccccc2c1Cl)c1ccc(F)cc1Cl [Compound 1]
- IC50 (MCF-7 cells): 1.41 nM
- Inhibition rate (uterine growth; 10 mg/kg + estradiol 0.1 mg/kg): 75%
- Uterine wet weight (uterine growth; 10 mg/kg + estradiol 0.1 mg/kg): 0.0672 g

Structure (SMILES): CC/C(=C(/c1ccc(OCCNC/C=C/C(=O)N(C)C)nc1)c1[nH]c2ccccc2c1Cl)c1cccc(OC)c1 [Compound 4 monohydrochloride]
- AUC(0-t) ([1]; iv, i.v. 1 mg/kg): 1100 nM·h
- clearance ([1]; iv, i.v. 1 mg/kg): 1.56 L/h/kg
- half-life ([1]; iv, i.v. 1 mg/kg): 1.85 h
- Vd [1, 5]: 3.45 L/kg
- AUC(0-t) ([1]; po, p.o. 2 mg/kg): 503 nM·h
- Cmax ([1]; po, p.o. 2 mg/kg): 0.159 µM
- Tmax ([1]; po, p.o. 2 mg/kg): 0.25 h
- bioavailability ([1]; po, p.o. 2 mg/kg): 22.9%
- half-life ([1]; po, p.o. 2 mg/kg): 3.25 h
- AUC(0-t) ([2]; iv, i.v. 1 mg/kg): 1900 nM·h
- clearance ([2]; iv, i.v. 1 mg/kg): 0.948 L/h/kg
- half-life ([2]; iv, i.v. 1 mg/kg): 3.98 h
- Vd [2, 5]: 4.86 L/kg
- AUC(0-t) ([2]; po, p.o. 2 mg/kg): 1840 nM·h
- Cmax ([2]; po, p.o. 2 mg/kg): 0.233 µM
- Tmax ([2]; po, p.o. 2 mg/kg): 2 h
- bioavailability ([2]; po, p.o. 2 mg/kg): 48.4%
- half-life ([2]; po, p.o. 2 mg/kg): 3.26 h
- Tumor volume 27 days after grouping ([3]; 3 mg/kg once a day): 396 ± 58 mm^3
- T/C ([3]; 3 mg/kg once a day): 28.74%
- TGI ([3]; 3 mg/kg once a day): 83%
- Tumor volume 27 days after grouping ([3]; 10 mg/kg once a day): 124 ± 5 mm^3
- T/C ([3]; 10 mg/kg once a day): 9.32%
- TGI ([3]; 10 mg/kg once a day): 106%

Structure (SMILES): C[C@]12CC[C@@H]3c4ccc(O)cc4CC[C@H]3[C@@H]1CC[C@@H]2O [Estradiol, estradiol, reference compound]
- Uterine wet weight (uterine growth; estradiol alone (control group)): 0.1200 g

Structure (SMILES): C[C@]12CC[C@@H]3c4ccc(O)cc4C[C@@H](CCCCCCCCC[S+]([O-])CCCC(F)(F)C(F)(F)F)[C@H]3[C@@H]1CC[C@@H]2O (stereo partly drawn) [fulvestrant]
- bioavailability via oral administration [4]: zero
- clinical response rate (breast cancer): about 50%
